Experimental data as given in patent publication US8778946B2, “3-substituted-6-(pyridinylmethoxy)-pyrrolopyridine compounds” (Eli Lilly and Company, priority 2010, dated 2014).
pIC50: −log10 of the molar value. “And” between values parts separate entries of the source, which are not always exact repeats. Identical values can stand only once. Marks after values point to notes of the source that are not given here.

Key:
C57/black 6J male mice [1] = experiment: Reversal of reserpine-induced akinesia; type: in vivo
Procedure: (§1) Anti-Parkinson effects of compounds of the invention can be determined using procedures well known in the art such as animal models of locomotor activity. For example, compounds of the invention show effects on basal (habituated) locomotor activity and on reserpine-induced akinesia in C57/black 6J male mice.
Reserpine is a catecholamine depleting agent (depletes dopamine and noradrenaline) and 18-24 hours after treatment mice become akinetic and have reduced locomotor activity counts. Reserpine-induced akinesia is assessed by measuring the effect of compounds on locomotor activity approximately 18-24 hours after a single dose of 1 mg/kg reserpine i.p. The equipment used is the same as that used for basal locomotor activity (above).
(§2) Mice are randomly assigned to treatment groups. Each mouse is placed individually into one of the locomotor activity boxes. Distance moved (cm) is recorded per 5 minutes for each mouse. Basal and reserpine-induced exploratory behavior is assessed for the following 30 minutes. After 30 minutes recording stops and mice are dosed p.o. with the test compound in a volume of 10 ml/kg. Once all mice have been dosed locomotor activity recording is started for a further 120 minutes to assess the effect of treatment on akinesia. Data is transferred from the software/computers to spreadsheets for further analysis. Statistical analysis is carried out using Statistica 8.0. One way ANOVA on TOTAL distance moved, with Treatment group as the between factor, is calculated. If a significant Treatment effect (p≦0.05) is observed then post-hoc analysis is performed, either Fishers' LSD or Dunnetts' test.

C57/black 6J male mice [2] = experiment: Basal (habituated) locomotor activity; type: in vivo
Procedure: as §1
Locomotor activity is measured using an automated system to track movement in mice. Mice are placed in chambers and allowed to habituate to the chambers for 30 mins. During this time they show reduced locomotion over time. Following administration of a compound of the invention, animal movement is restored to pre-habituation levels.
More specifically, locomotor activity boxes [40×40×40 cm clear arenas] are situated in groups of 4 placed on infrared tables and testing is performed in the dark. Locomotor activity is recorded and measured using infrared video tracking. Locomotor activity is recorded between time of 8:30 and 17:00 hours. In some instances locomotor activity is measured using open fields which use infrared beam breaks as a measure of movement.
as §2, with “mouse. Exploratory” for “mouse. Basal and reserpine-induced exploratory”, “compound or vehicle” for “compound”, “been dosed,” for “been dosed”, “on habituated locomotor activity.” for “on akinesia.”

human mGluR5 = molecular target: T1, human mGluR5 (Homo sapiens, UniProt P41594); experiment: Human mGluR5 in vitro functional assay (FLIPR calcium, antagonism of glutamate EC90 response); type: cell-based; settings: AV-12 cells expressing recombinant human mGlu5a, relative IC50
T1 construct: expressed in transfected cells; host or cells: AV-12 cells containing the rat EAAT1 glutamate transporter
T1 sequence (P41594 21-1180 isoform P41594-2 limits assumed): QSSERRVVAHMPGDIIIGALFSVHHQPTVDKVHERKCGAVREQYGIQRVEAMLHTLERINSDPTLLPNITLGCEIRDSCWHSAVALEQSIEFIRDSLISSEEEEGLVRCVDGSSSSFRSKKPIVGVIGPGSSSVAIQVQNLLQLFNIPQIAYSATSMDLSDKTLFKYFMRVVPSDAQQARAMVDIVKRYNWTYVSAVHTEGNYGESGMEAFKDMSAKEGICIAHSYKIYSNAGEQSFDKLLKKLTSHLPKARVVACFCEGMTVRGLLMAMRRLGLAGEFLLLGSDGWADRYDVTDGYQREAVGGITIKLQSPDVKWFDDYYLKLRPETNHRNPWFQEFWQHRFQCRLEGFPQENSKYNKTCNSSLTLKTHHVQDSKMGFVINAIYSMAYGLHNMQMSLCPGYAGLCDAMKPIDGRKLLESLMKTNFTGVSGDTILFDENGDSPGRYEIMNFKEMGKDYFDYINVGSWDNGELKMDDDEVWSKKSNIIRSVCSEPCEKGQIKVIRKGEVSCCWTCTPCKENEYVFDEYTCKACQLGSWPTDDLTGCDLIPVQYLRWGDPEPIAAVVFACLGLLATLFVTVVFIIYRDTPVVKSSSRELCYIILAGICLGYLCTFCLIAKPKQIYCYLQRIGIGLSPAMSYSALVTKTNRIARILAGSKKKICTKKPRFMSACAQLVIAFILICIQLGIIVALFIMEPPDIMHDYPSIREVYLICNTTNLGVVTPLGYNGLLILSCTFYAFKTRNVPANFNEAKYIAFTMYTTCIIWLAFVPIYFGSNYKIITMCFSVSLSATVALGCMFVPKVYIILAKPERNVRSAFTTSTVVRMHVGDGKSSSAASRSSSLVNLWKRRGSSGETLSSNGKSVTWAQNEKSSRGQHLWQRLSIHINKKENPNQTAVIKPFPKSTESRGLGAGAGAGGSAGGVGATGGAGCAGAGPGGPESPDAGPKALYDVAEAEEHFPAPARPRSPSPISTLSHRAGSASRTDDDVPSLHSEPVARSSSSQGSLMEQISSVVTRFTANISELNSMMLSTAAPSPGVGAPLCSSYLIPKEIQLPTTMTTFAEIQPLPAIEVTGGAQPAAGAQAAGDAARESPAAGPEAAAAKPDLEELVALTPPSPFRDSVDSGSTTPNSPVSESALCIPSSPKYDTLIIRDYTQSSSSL
Excerpt: (§3) The activation of G-protein coupled receptors (GPCRs) that are coupled to Gq proteins results in a change in intracellular calcium concentration. This functional response can be measured in a kinetic assay using calcium-sensitive dyes and a fluorescent imaging plate reader using a standard technique known as FLIPR (MDS Analytical Technologies, Sunnyvale, Calif.).
(§4) Stable cell line preparation and assay techniques are adapted from Kingston, A. E., et. al. (1995) Neuropharmacology 34: 887-894. […]
(§5) For the functional assays, cells are seeded in growth medium lacking selection antibiotics at a density of 65K per well into 96-well, black/clear bottom, poly-D-lysine coated microplates and incubated for 18-20 hours prior to the experiment. […] The antagonist effects of compounds are quantified in the FLIPR instrument in 10-point dose curves by comparing the peak fluorescent responses to the agonist glutamate in the presence and absence of compound. Specifically, the compound effect is measured as maximal minus minimal peak heights in relative fluorescent units corrected for basal fluorescence as measured in the absence of glutamate. All data are calculated as relative IC50 values using a four-parameter logistic curve fitting program (Activity Base® v5.3.1.22).

human mGluR1 = molecular target: T2, human mGluR1 (Homo sapiens, UniProt Q13255); experiment: Human mGluR1 in vitro functional assay (FLIPR calcium, antagonism of glutamate EC90 response); type: cell-based; settings: AV-12 cells expressing recombinant human mGlu1α, relative IC50
T2 construct: expressed in transfected cells; host or cells: AV-12 cells containing the rat EAAT1 glutamate transporter
T2 sequence (Q13255 19-1194): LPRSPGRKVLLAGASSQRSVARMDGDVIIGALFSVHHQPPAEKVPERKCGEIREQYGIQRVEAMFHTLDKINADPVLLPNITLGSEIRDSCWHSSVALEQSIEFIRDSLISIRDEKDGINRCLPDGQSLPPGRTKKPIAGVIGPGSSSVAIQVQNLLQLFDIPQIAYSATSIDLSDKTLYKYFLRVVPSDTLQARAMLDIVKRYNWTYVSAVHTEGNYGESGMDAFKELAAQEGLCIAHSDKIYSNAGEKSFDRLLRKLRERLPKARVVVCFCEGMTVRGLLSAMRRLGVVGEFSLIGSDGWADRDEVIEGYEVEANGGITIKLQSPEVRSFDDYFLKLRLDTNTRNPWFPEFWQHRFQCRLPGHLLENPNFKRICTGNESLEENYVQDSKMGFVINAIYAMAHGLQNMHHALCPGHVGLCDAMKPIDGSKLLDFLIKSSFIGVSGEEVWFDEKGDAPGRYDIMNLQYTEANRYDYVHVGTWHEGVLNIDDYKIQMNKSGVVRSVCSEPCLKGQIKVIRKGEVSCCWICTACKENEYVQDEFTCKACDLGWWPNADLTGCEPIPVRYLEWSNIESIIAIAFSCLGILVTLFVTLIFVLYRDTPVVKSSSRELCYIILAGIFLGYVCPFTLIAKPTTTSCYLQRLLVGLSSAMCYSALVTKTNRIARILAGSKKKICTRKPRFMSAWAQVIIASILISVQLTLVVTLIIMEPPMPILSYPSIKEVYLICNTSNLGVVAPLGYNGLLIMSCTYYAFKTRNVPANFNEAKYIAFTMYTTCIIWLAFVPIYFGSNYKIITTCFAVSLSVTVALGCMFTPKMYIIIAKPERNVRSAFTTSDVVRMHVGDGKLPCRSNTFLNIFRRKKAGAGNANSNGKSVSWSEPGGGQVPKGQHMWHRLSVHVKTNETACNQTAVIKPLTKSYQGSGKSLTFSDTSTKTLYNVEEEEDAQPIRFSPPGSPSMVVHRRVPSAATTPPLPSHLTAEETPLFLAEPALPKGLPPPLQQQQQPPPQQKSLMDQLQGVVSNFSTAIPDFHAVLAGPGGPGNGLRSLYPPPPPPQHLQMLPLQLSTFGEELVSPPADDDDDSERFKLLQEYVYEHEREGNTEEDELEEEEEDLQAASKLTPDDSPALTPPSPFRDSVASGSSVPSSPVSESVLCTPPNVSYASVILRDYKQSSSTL
Excerpt: as §3, §4, §5

[3] = tested on: male Fischer F-344 Sasco rats; experiment: Attenuation of stress-induced hyperthermia in rats; type: in vivo; settings: oral, 60-min pretreatment
Procedure: Stress-induced hyperthermia is attenuated by clinical anxiolytics and is widely used preclinically to predict anxiolytic efficacy of compounds.
In separate studies, male Fischer F-344 Sasco rats are dosed orally with 0.3, 1, 3, or 10 mg/kg of test compound in a vehicle consisting of 1% carboxymethylcellulose, 0.25% polysorbate 80, 0.05% antifoam (dose volume=1 ml/kg). The mGluR5 receptor antagonist MTEP (3-[(2-methyl-1,3-thiazol-4-yl)ethynyl]pyridine) (10 mg/kg, PO) is used as a quality control. Following a 60-min pretreatment period, core baseline body temperature is measured (T1, in degrees C.) and then ten minutes later a second body temperature measurement is recorded (T2). The change in body temperature (T2 minus T1) is defined as the stress-induced hyperthermic response. The efficacious dose is the dose at which a compound produces a 35% reduction in stress-induced hyperthermia, relative to the vehicle response, and is defined as the T35 dose.

Male, NIH-Swiss mice = experiment: Mouse forced-swim; type: in vivo
Procedure: Male, NIH-Swiss mice (20-25 g, Harlan Sprague-Dawley, Indianapolis, Ind.) are used in a method modified from that of Porsolt R D, Le Pichon M, Jalfre M Depression: a new animal model sensitive to antidepressant treatments. Nature. 1977 Apr. 21; 266(5604):730-2. Mice are placed in clear plastic cylinders (diameter 10 cm; height: 25 cm) filled to 6 cm with 22-25° C. water for six min. The duration of immobility is recorded during the last 4 min of a six-minute trial. A mouse is regarded as immobile when floating motionless or making only those movements necessary to keep its head above the water. Data are analyzed by post-hoc Dunnett's test with alpha level set at 0.05. The amount of time spent immobile is measured. Means+S.E.M. are subjected to ANOVA followed by Dunnett's test with p<0.05 set as the error rate for statistical significance. ED60 values are extrapolated from the linear portion of the dose-effect curve and represent the dose predicted to decrease basal immobility (100% at 0 mg/kg compound) by 60%. The maximal decrease in immobility time is calculated using the largest decrease in immobility produced at any dose of a compound with this formula: (100-immobility with compound/immobility under vehicle control) %.

[4] = reserpine 1 mg/kg i.p. + 3 mg/kg p.o. test compound
[5] = reserpine 1 mg/kg i.p. + 10 mg/kg p.o. test compound

SMILES | Basal Locomotor Activity (mean distance moved (cm) in 120 min) (C57/black 6J male mice [2]; 3 mg/kg p.o.) | Basal Locomotor Activity (mean distance moved (cm) in 120 min) (C57/black 6J male mice [2]; 10 mg/kg p.o.) | Reversal of Reserpine-Induced Akinesia (mean distance moved (cm) in 120 min) (C57/black 6J male mice [1]; [4]) | Reversal of Reserpine-Induced Akinesia (mean distance moved (cm) in 120 min) (C57/black 6J male mice [1]; [5]) | also measured
COC(=O)[C@H]1[C@H]2C[C@@H]3c4[nH]c5cc(OC)ccc5c4CCN3C[C@H]2C[C@@H](OC(=O)c2cc(OC)c(OC)c(OC)c2)[C@@H]1OC [reserpine, Reserpine, reference compound] |  |  |  |  | mean distance moved (cm) in 120 min, reserpine alone (C57/black 6J male mice [1]; 18-24 hours after single dose of 1 mg/kg reserpine i.p., no test compound, 1 mg/kg): 4118.6 cm and 7331.1 cm and 4597.2 cm and 6150 cm
CCn1cc(N2CCN(C(=O)OC)CC2=O)c2ccc(OCc3ccccn3)nc21 [Example 23, methyl 4-[1-ethyl-6-(pyridin-2-ylmethoxy)-1H-pyrrolo[2,3-b]pyridin-3-yl]-3-oxopiperazine-1-carboxylate] | 21628.2 ** cm | 31070.8 *** cm |  |  | 
CC(C)OC(=O)N1CCN(c2cn(C)c3nc(OCc4ccccn4)ccc23)C(=O)C1 [Example 4, 1-Methylethyl 4-[1-methyl-6-(pyridin-2-ylmethoxy)-1H-pyrrolo[2,3-b]pyridin-3-yl]-3-oxopiperazine-1-carboxylate] | 30715.2 ** cm | 39935.6 *** cm | 16474.1 + cm | 23394.4± **+++ cm | 
CCOC(=O)N1CCN(c2cn(C)c3nc(OCc4ccccn4)ccc23)C(=O)C1 [Example 1, ethyl 4-[1-methyl-6-(pyridin-2-ylmethoxy)-1H-pyrrolo[2,3-b]pyridin-3-yl]-3-oxopiperazine-1-carboxylate] | 15980 *** cm | 25109 *** cm | 23611 ***+++ cm |  | pIC50 (human mGluR5): 6.74; pIC50 (human mGluR1): < 4.90; Basal Locomotor Activity (mean distance moved (cm) in 120 min) (C57/black 6J male mice [2]; 1 mg/kg p.o.): 12147 ** cm; Reversal of Reserpine-Induced Akinesia (mean distance moved (cm) in 120 min) (C57/black 6J male mice [1]; reserpine 1 mg/kg i.p. + 1 mg/kg p.o. test compound): 15392 ++ cm; Reversal of Reserpine-Induced Akinesia (mean distance moved (cm) in 120 min) (C57/black 6J male mice [1]; reserpine 1 mg/kg i.p. + 30 mg/kg p.o. test compound): 32607 ***+++ cm; T35 dose (dose producing a 35% reduction in stress-induced hyperthermia relative to vehicle) [3]: 0.55 mg/kg; ED60 dose, reduction in forced swim immobility (Male, NIH-Swiss mice; extrapolated from linear portion of dose-effect curve): 8.6 mg/kg; maximal decrease in immobility (Male, NIH-Swiss mice; largest decrease at any dose relative to vehicle control): 50.6%; melting point: 143.42 °C
CCOC(=O)N1CCN(c2cn(C)c3nc(OCc4ccccn4)c(Cl)cc23)C(=O)C1 [Example 27, Ethyl 4-[5-chloro-1-methyl-6-(pyridin-2-ylmethoxy)-1H-pyrrolo[2,3-b]pyridin-3-yl]-3-oxopiperazine-1-carboxylate] | 35290.1 *** cm | 36889.1 *** cm | 27053.7 ***+++ cm | 23432.5 **+++ cm | 
CCCOC(=O)N1CCN(c2cn(C)c3nc(OCc4ccccn4)ccc23)C(=O)C1 [Example 3, Propyl 4-[1-methyl-6-(pyridin-2-ylmethoxy)-1H-pyrrolo[2,3-b]pyridin-3-yl]-3-oxopiperazine-1-carboxylate] | 28458.8 *** cm | 39857.5 *** cm |  |  | T35 dose (dose producing a 35% reduction in stress-induced hyperthermia relative to vehicle) [3]: 0.93 mg/kg
CCOC(=O)N1CCN(c2cn(C)c3nc(OCc4ccccn4)c(C)cc23)C(=O)C1 [Example 28, Ethyl 4-[1,5-dimethyl-6-(pyridin-2-ylmethoxy)-1H-pyrrolo[2,3-b]pyridin-3-yl]-3-oxopiperazine-1-carboxylate] | 25074.1 ** cm | 32866.2 *** cm | 7848.9 cm | 14087.6 **+++ cm | 
